The supplement of paper PMC10307832

Legend:
Assay in all cases: relative viability (nuclei count vs DMSO), 5 days (fraction); higher = more cells survive
CX-5461 + AZD7762 = compound: Cc1cnc(CNC(=O)c2c(=O)c3ccc(N4CCCN(C)CC4)nc3n3c2sc2ccccc23)cn1 [CX-5461] + NC(=O)Nc1cc(-c2cccc(F)c2)sc1C(=O)N[C@H]1CCCNC1 [AZD7762] (partner 0.2 µM)
Method in brief: (§1)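 Cells from lung cancer lines were seeded into 1536-well plates and, one day later, dosed by pin tool. Treatments were either a single drug or a fixed dose of an anchor drug with five library-drug doses (not always all listed) in √10 steps. After 5 days, nuclei were stained in a one-step fixation (final 0.05% Triton X-100, 1% formaldehyde, 1 ug/ml Hoechst) and counted on 4× images, and relative viability is the treated-to-vehicle nuclei ratio, as the median of duplicate plates.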

IMD-0354 + Phenformin = compound: O=C(Nc1cc(C(F)(F)F)cc(C(F)(F)F)c1)c1cc(Cl)ccc1O [IMD-0354] + N=C(N)NC(=N)NCCc1ccccc1 [Phenformin] (partner 250 µM)
Method in brief: as §1

CX-5461 + Tozasertib = compound: Cc1cnc(CNC(=O)c2c(=O)c3ccc(N4CCCN(C)CC4)nc3n3c2sc2ccccc23)cn1 [CX-5461] + Cc1cc(Nc2cc(N3CCN(C)CC3)nc(Sc3ccc(NC(=O)C4CC4)cc3)n2)n[nH]1 [Tozasertib] (partner 0.1 µM)
Method in brief: as §1

CX-5461 + Pemetrexed = compound: Cc1cnc(CNC(=O)c2c(=O)c3ccc(N4CCCN(C)CC4)nc3n3c2sc2ccccc23)cn1 [CX-5461] + Nc1nc2[nH]cc(CCc3ccc(C(=O)N[C@@H](CCC(=O)O)C(=O)O)cc3)c2c(=O)[nH]1 [Pemetrexed] (partner 0.2 µM)
Method in brief: as §1

Cell Line | relative viability (CX-5461 + AZD7762; first compound 0.01 µM) | relative viability (CX-5461 + AZD7762; first compound 0.03162 µM) | relative viability (CX-5461 + AZD7762; first compound 0.1 µM) | relative viability (CX-5461 + AZD7762; first compound 0.3162 µM) | relative viability (CX-5461 + AZD7762; first compound 1 µM) | relative viability (IMD-0354 + Phenformin; first compound 0.04 µM) | relative viability (IMD-0354 + Phenformin; first compound 0.1265 µM) | relative viability (IMD-0354 + Phenformin; first compound 0.4 µM) | relative viability (IMD-0354 + Phenformin; first compound 1.265 µM) | relative viability (IMD-0354 + Phenformin; first compound 4 µM) | relative viability (CX-5461 + Tozasertib; first compound 0.01 µM) | relative viability (CX-5461 + Tozasertib; first compound 0.03162 µM) | relative viability (CX-5461 + Tozasertib; first compound 0.3162 µM) | relative viability (CX-5461 + Tozasertib; first compound 1 µM) | relative viability (CX-5461 + Pemetrexed; first compound 0.01 µM) | relative viability (CX-5461 + Pemetrexed; first compound 0.03162 µM) | relative viability (CX-5461 + Pemetrexed; first compound 0.1 µM) | relative viability (CX-5461 + Pemetrexed; first compound 0.3162 µM) | relative viability (CX-5461 + Pemetrexed; first compound 1 µM) | relative viability (CX-5461 + Tozasertib; first compound 0.1 µM)
NCI-H1651 | 0.48 | 0.491 | 0.328 | 0.588 | 0.143 | 0.35 | 0.22 | 0.198 | 0.106 | 0.0771 | 0.7 | 0.465 | 0.505 | 0.106 | 0.551 | 0.6 | 0.546 | 0.623 | 0.18 | 
NCI-H1666 | 0.796 | 0.912 | 0.728 | 0.856 | 0.69 | 0.592 | 0.558 | 0.476 | 0.384 | 0.254 | 0.629 | 0.609 | 0.534 | 0.406 | 0.854 | 0.848 | 1.01 | 0.828 | 0.769 | 0.488
NCI-H1734 | 0.583 | 0.602 | 0.317 | 0.327 | 0.286 | 0.393 | 0.284 | 0.257 | 0.165 | 0.129 | 0.261 | 0.293 | 0.209 | 0.238 | 0.404 | 0.435 | 0.419 | 0.39 | 0.432 | 0.266
NCI-H1755 | 0.453 | 0.447 | 0.38 | 0.413 | 0.406 | 0.603 | 0.547 | 0.411 | 0.273 | 0.252 | 0.49 | 0.568 | 0.529 | 0.467 | 0.389 | 0.507 | 0.427 | 0.399 | 0.488 | 0.565
NCI-H1793 | 0.61 | 0.44 | 0.313 | 0.391 | 0.168 | 0.386 | 0.344 | 0.157 | 0.163 | 0.147 | 0.281 | 0.332 |  | 0.315 | 1.17 | 1.21 | 0.92 | 0.706 | 0.802 | 0.426
NCI-H1915 | 0.75 | 0.74 | 0.643 | 0.673 | 0.608 | 0.37 | 0.31 | 0.26 | 0.182 | 0.156 | 0.426 | 0.471 | 0.312 | 0.426 | 0.536 | 0.509 | 0.487 | 0.496 | 0.495 | 0.417
NCI-H1944 | 0.444 | 0.512 | 0.358 | 0.269 | 0.195 | 0.232 | 0.197 | 0.15 | 0.116 | 0.148 | 0.259 | 0.271 | 0.228 | 0.248 | 0.561 | 0.653 | 0.531 | 0.451 | 0.271 | 0.244
NCI-H1975 | 0.792 | 0.729 | 0.737 | 0.847 | 0.425 | 0.402 | 0.362 | 0.201 | 0.139 | 0.124 | 0.744 | 0.815 | 0.744 | 0.211 | 0.286 | 0.296 | 0.274 | 0.331 | 0.264 | 0.577
NCI-H1993 | 0.754 | 0.893 | 0.716 | 0.81 | 0.78 | 0.48 | 0.495 | 0.438 | 0.465 | 0.524 | 0.614 | 0.585 | 0.599 | 0.556 | 0.529 | 0.67 | 0.582 | 0.587 | 0.625 | 0.566
NCI-H2085 | 1.05 | 1.03 | 0.918 | 1.04 | 0.719 | 0.641 | 0.69 | 0.515 | 0.322 | 0.232 | 0.734 | 0.849 | 0.752 | 0.798 | 1.03 | 0.907 | 0.88 | 0.989 | 0.799 | 0.785
NCI-H2087 | 1.22 | 1.42 | 1.44 | 1.43 | 1.13 | 0.481 | 0.258 | 0.206 | 0.119 | 0.128 | 0.208 | 0.276 | 0.265 | 0.159 | 0.689 | 0.657 | 0.684 | 0.712 | 0.654 | 0.243
NCI-H2126 | 1.1 | 1.05 | 0.981 | 1.05 | 0.903 | 0.561 | 0.47 | 0.424 | 0.309 | 0.222 | 0.842 | 0.842 | 0.765 | 0.668 | 0.697 | 0.713 | 0.687 | 0.672 | 0.634 | 0.758
NCI-H2170 | 1.09 | 0.92 | 1.01 | 0.917 | 0.504 | 0.418 | 0.37 | 0.301 | 0.229 | 0.221 | 0.781 | 0.768 | 0.581 | 0.637 | 0.252 | 0.257 | 0.267 | 0.26 | 0.272 | 0.727
NCI-H2342 | 0.444 | 0.486 | 0.484 | 0.522 | 0.469 | 0.632 | 0.593 | 0.455 | 0.4 | 0.383 | 0.521 | 0.524 | 0.497 | 0.566 | 0.764 | 0.815 | 0.751 | 0.744 | 0.745 | 0.462
NCI-H2347 | 0.825 | 0.716 | 0.688 | 0.767 | 0.605 | 0.396 | 0.381 | 0.272 | 0.149 | 0.218 | 0.544 | 0.563 | 0.536 | 0.454 | 0.396 | 0.42 | 0.431 | 0.411 | 0.41 | 0.474
NCI-H2405 | 0.783 | 0.66 | 0.705 | 0.821 | 0.414 | 0.445 | 0.398 | 0.286 | 0.245 | 0.166 | 0.746 | 0.882 | 0.549 | 0.544 | 1.06 | 0.892 | 1 | 1.02 | 0.911 | 0.702
